Experimental data: patent publication US20250026769A1, “PAPD5 INHIBITORS AND METHODS OF USE THEREOF” (The Children's Medical Center Corporation, priority 2021, published 2025)

Tests used:
[1] = target: T1, rPAPD5 (Homo sapiens, UniProt Q8NDF8); experiment: differential scanning fluorimetry (DSF) binding and stabilization of rPAPD5; conditions: 100 μM test compound; shift vs DMSO control; read-out: ΔTm at 100 μM
T1 construct: made in house
Summary of the method: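 Compound-induced shifts in rPAPD5 melting temperature were determined by thermal shift (DSF). Protein at […] was mixed with a non-extendable ATP analog […] in Tris-HCl (25 mM), MgCl2 (5 mM) and KCl (50 mM), with SYPRO orange at 1:5000. Curves were averages of three measurements analyzed with Thermal Shift software, and ΔTm was referenced to DMSO.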

[2] = tested on: hepatitis B surface antigen (HBSAg) from HepG2.2.15 cells, a hepatitis B virus-expressing cell line; experiment: HBsAg ELISA in supernatant of HepG2.2.15 cells; assay type: cell-based; conditions: HepG2.2.15, 96 h
Description: HepG2.2.15 cells, a hepatitis B virus-expressing cell line (Sells, M. A. et al., PNAS, 1987), were plated at 50,000 cells/well in DMEM/F12 media (Gibco) with 10% fetal bovine serum (Omega Scientific) in a 24-well or 96-well plate (Corning), in 2-3 replicates for each test compound/concentration plus controls, and incubated in a humidified 5% CO2 chamber at 37° C. The next day, media was aspirated, cells were washed once with phosphate buffered saline, pH7.4 (Gibco), and 1 mL DMEM/12 media was replaced. Test compounds were added in 3-fold dilutions from up to 100 μM down to 333 pM, with vehicle (dimethylsulfoxide (Sigma)) as a control. After four days of culture in a humidified 5% CO2 chamber at 37° C., plates were spun down in a centrifuge at 300 g for 10 minutes at room temperature. Supernatant from each well was collected and either frozen at −20° C. or used directly for quantitation of hepatitis B surface antigen (HBSAg) in an enzyme-linked immunosorbent assay (ELISA). The supernatant was tested using the HBSAg ELISA kit (Abnova Cat. No KA0286) per the manufacturer's instructions. Results of replicates were averaged and nonlinear curve fitting was used to determine the half maximal inhibitory concentration (IC50) for each test compound.

T1 sequence (Q8NDF8 68-698 isoform Q8NDF8-5 limits assumed): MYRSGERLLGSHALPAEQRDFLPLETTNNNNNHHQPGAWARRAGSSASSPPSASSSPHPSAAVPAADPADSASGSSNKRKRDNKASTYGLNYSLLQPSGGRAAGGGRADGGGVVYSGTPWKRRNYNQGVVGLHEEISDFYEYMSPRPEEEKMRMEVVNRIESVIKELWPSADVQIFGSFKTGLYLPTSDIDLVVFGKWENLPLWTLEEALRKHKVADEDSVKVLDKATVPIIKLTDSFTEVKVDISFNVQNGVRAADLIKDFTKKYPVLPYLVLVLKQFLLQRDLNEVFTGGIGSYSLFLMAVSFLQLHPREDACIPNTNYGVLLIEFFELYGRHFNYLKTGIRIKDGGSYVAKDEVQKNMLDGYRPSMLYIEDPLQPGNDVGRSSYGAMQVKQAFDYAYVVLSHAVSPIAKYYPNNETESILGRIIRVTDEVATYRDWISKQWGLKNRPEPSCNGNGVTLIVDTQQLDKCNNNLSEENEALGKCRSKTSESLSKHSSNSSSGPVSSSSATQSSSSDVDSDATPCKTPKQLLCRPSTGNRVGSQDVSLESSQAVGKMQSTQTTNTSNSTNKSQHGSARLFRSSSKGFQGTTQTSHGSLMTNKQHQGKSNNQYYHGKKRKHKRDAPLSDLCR

O=C(O)c1ccccc1Nc1c(-c2ncco2)cnc2ccc(Cl)cc12 [Compound 129A, 2-[(6-chloro-3-oxazol-2-yl-4-quinolyl)amino]benzoic acid]
ΔTm at 100 µM [1]: > 5 °C
IC50 [2]: 4600 nM

O=C(O)c1ccccc1Nc1c(-c2ncco2)cnc2ccc(Br)cc12 [Compound 130A]
ΔTm at 100 µM [1]: > 5 °C
IC50 [2]: 8890 nM

O=C(O)c1ccccc1Nc1c(NC2CCC(F)(F)CC2)cnc2ccc(Cl)cc12 [Compound 185A, 2-[[6-chloro-3-[(4,4-difluorocyclohexyl)amino]-4-quinolyl]amino]benzoic acid]
ΔTm at 100 µM [1]: > 5 °C
IC50 [2]: 2190 nM

O=C(O)c1ccccc1Nc1c(C2CCOCC2)cnc2ccc(Cl)cc12 [Compound 204A, 2-[(6-chloro-3-tetrahydropyran-4-yl-4-quinolyl)amino]benzoic acid]
ΔTm at 100 µM [1]: > 5 °C
IC50 [2]: 3390 nM

O=C(O)c1ccccc1Nc1c(C2=CCOCC2)cnc2ccc(Cl)cc12 [Compound 204A-INT, 2-[[6-chloro-3-(3,6-dihydro-2H-pyran-4-yl)-4-quinolyl]amino]benzoic acid]
ΔTm at 100 µM [1]: > 5 °C
IC50 [2]: 2690 nM

O=C(O)c1ccccc1Nc1c(C2=CCC(F)(F)CC2)cnc2ccc(Cl)cc12 [Compound 205A-INT, 2-[[6-chloro-3-(4,4-difluorocyclohexen-1-yl)-4-quinolyl]amino]benzoic acid]
ΔTm at 100 µM [1]: > 5 °C
IC50 [2]: 1300 nM

O=C(O)c1ccccc1Nc1c(S(=O)(=O)Nc2nn[nH]n2)cnc2ccc(Cl)cc12 [Compound 226A, 2-[[6-chloro-3-(2H-tetrazol-5-ylsulfamoyl)-4-quinolyl]amino]benzoic acid]
ΔTm at 100 µM [1]: > 5 °C
IC50 [2]: 9460 nM

O=C(O)c1ccccc1Nc1c(S(=O)(=O)N2CCOCC2)cnc2ccc(F)cc12 [Compound 233A, 2-[(6-fluoro-3-morpholinosulfonyl-4-quinolyl)amino]benzoic acid]
ΔTm at 100 µM [1]: > 5 °C
IC50 [2]: 29100 nM

O=C(O)c1cc(F)ccc1Nc1c(S(=O)(=O)N2CCOCC2)cnc2ccc(Cl)cc12 [Compound 267A, 2-[(6-chloro-3-morpholinosulfonyl-4-quinolyl)amino]-5-fluoro-benzoic acid]
ΔTm at 100 µM [1]: > 5 °C
IC50 [2]: 4840 nM

Cc1ccc(Nc2c(S(=O)(=O)N3CCOCC3)cnc3ccc(Cl)cc23)c(C(=O)O)c1 [Compound 269A, 2-[(6-chloro-3-morpholinosulfonyl-4-quinolyl)amino]-5-methyl-benzoic acid]
ΔTm at 100 µM [1]: > 5 °C
IC50 [2]: 1680 nM

COc1ccc(Nc2c(S(=O)(=O)N3CCOCC3)cnc3ccc(Cl)cc23)c(C(=O)O)c1 [Compound 270A, 2-[(6-chloro-3-morpholinosulfonyl-4-quinolyl)amino]-5-methoxy-benzoic acid]
ΔTm at 100 µM [1]: > 5 °C
IC50 [2]: 4980 nM

O=C(O)c1ccccc1Nc1c(C2CCSCC2)cnc2ccc(Cl)cc12 [Compound 298A, 2-[(6-chloro-3-tetrahydrothiopyran-4-yl-4-quinolyl)amino]benzoic acid]
ΔTm at 100 µM [1]: > 5 °C
IC50 [2]: 1750 nM

Cc1ccc(Nc2c(-c3ncco3)cnc3ccc(Cl)cc23)c(C(=O)O)c1 [Compound 301A, 2-[(6-chloro-3-oxazol-2-yl-4-quinolyl)amino]-5-methyl-benzoic acid]
ΔTm at 100 µM [1]: > 5 °C
IC50 [2]: 942 nM

O=C(O)c1cc(F)ccc1Nc1c(C2CCOCC2)cnc2ccc(Cl)cc12 [Compound 303A, 2-[(6-chloro-3-tetrahydropyran-4-yl-4-quinolyl)amino]-5-fluoro-benzoic acid]
ΔTm at 100 µM [1]: > 5 °C
IC50 [2]: 229 nM

Cc1ccc(Nc2c(C3CCOCC3)cnc3ccc(Cl)cc23)c(C(=O)O)c1 [Compound 305A, 2-[(6-chloro-3-tetrahydropyran-4-yl-4-quinolyl)amino]-5-methyl-benzoic acid]
ΔTm at 100 µM [1]: > 5 °C
IC50 [2]: 66 nM

Cc1ccc(Nc2c(C3=CCOCC3)cnc3ccc(Cl)cc23)c(C(=O)O)c1 [Compound 306A, 2-[[6-chloro-3-(3,6-dihydro-2H-pyran-4-yl)-4-quinolyl]amino]-5-methyl-benzoic acid]
ΔTm at 100 µM [1]: > 5 °C
IC50 [2]: 1050 nM
